Laboratory results published in ChEMBL document CHEMBL1155870, “Design and synthesis of novel oxazole containing 1,3-dioxane-2-carboxylic acid derivatives as PPAR alpha/gamma dual agonists” (Bioorg Med Chem, 2008).
Calls of active or inactive are those of the source. The rule behind the calls is not given here.

Tests used:
[1] = target: T1, Peroxisome proliferator-activated receptor alpha (Homo sapiens) (UniProt Q07869); assay: Agonist activity at PPARalpha expressed in human HepG2 cells at 10 uM assessed as induction of receptor transactivation by reporter gene assay relative to control; type: functional, cell-based
T1 sequence (whole entry): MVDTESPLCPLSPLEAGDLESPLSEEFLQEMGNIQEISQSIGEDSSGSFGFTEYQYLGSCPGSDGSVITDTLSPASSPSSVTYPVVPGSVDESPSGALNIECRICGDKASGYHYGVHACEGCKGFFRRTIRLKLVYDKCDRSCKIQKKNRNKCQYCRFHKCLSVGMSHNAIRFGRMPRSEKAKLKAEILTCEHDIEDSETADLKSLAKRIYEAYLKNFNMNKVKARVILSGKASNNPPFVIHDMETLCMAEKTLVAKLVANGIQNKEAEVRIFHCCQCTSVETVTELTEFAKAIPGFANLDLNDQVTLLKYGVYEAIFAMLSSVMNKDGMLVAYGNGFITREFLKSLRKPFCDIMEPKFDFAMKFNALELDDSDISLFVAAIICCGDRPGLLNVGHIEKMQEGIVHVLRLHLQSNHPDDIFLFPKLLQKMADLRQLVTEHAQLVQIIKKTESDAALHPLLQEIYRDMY

[2] = target: T2, Peroxisome proliferator-activated receptor alpha (Homo sapiens, UniProt Q07869); assay: Agonist activity at PPARalpha expressed in human HepG2 cells assessed as induction of receptor transactivation by reporter gene assay relative to control; type: functional, cell-based
T2 sequence (Q07869 whole entry): T1 sequence (whole entry)

[3] = target: T3, Peroxisome proliferator-activated receptor gamma (Homo sapiens, UniProt P37231)
T3 sequence (P37231 whole entry): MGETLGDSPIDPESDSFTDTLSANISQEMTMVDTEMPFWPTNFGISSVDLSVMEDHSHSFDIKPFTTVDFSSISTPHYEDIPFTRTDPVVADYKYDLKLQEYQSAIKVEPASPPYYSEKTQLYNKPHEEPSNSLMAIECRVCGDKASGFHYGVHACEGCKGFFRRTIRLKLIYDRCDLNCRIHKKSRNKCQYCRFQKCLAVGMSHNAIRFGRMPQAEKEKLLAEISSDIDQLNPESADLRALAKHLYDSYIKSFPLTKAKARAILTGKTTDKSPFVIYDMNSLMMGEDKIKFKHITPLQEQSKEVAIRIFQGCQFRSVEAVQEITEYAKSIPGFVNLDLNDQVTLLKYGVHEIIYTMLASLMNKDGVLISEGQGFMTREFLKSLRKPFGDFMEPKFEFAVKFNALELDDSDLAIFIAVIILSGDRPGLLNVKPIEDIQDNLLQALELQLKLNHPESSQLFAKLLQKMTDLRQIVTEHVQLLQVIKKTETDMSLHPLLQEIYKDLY
Description: Agonist activity at PPARgamma expressed in human HepG2 cells assessed as induction of receptor transactivation by reporter gene assay relative to control

[4] = system: Rattus norvegicus; assay: Hypolipidemic activity in Zucker diabetic fa/fa rat assessed as reduction in total cholesterol level at 3 mg/kg/day, po for 14 days; type: functional; set-up: scale not given: the % may be the effect or the level left
[5] = system: Rattus norvegicus; assay: Hypoglycemic activity in Zucker diabetic fa/fa rat assessed as improvement in glucose AUC at 3 mg/kg/day, po for 14 days; type: functional
[6] = system: Rattus norvegicus; assay: Insulin sensitizing activity in Zucker diabetic fa/fa rat assessed as reduction in fasted insulin level at 3 mg/kg/day, po for 14 days; type: functional; set-up: scale not given: the % may be the effect or the level left
[7] = system: Mus musculus; assay: Hypoglycemic activity in db/db mouse assessed as reduction in plasma glucose level at 3 mg/kg/day, po for 6 days; type: functional; set-up: scale not given: the % may be the effect or the level left
[8] = system: Mus musculus; assay: Hypolipidemic activity in db/db mouse assessed as reduction in triglyceride level at 3 mg/kg/day, po for 6 days; type: functional; set-up: scale not given: the % may be the effect or the level left
[9] = system: Rattus norvegicus; assay: Hypolipidemic activity in Zucker diabetic fa/fa rat assessed as reduction in triglyceride level at 3 mg/kg/day, po for 14 days; type: functional; set-up: scale not given: the % may be the effect or the level left
[10] = Cmax in Wistar rat at 30 mg/kg, po; type: ADME, organism-based; set-up: dose 30 mg/kg, route oral; conditions: in vivo
[11] = AUC (0 to infinity) in Wistar rat at 30 mg/kg, po; type: ADME, organism-based; set-up: time infinity, dose 30 mg/kg, route oral; conditions: plasma
[12] = Half life in Wistar rat at 30 mg/kg, po; type: ADME, organism-based; set-up: dose 30 mg/kg, route oral; conditions: in vivo
[13] = Tmax in Wistar rat at 30 mg/kg, po; type: ADME, organism-based; set-up: dose 30 mg/kg, route oral; conditions: in vivo
[14] = system: Mus musculus; assay: Hypoglycemic activity in db/db mouse assessed as reduction in plasma glucose level at 30 mg/kg/day, po for 6 days; type: functional, organism-based; set-up: route oral; scale not given: the % may be the effect or the level left

Structure (SMILES)	fold change (FC) [1]	EC50 [2]	EC50 [3]	other results
Cc1ccc(-c2nc(CCOc3ccc([C@H]4CO[C@@](C)(C(=O)O)OC4)cc3)c(C)o2)cc1	–	–	–	Activity [1]: inactive
Cc1ccc(-c2nc(CCCOc3ccc(C[C@H]4CO[C@@](C)(C(=O)O)OC4)cc3)c(C)o2)cc1	1.8	–	–	–
Cc1oc(-c2ccccc2)nc1CCOc1ccc([C@H]2CO[C@@](C)(C(=O)O)OC2)cc1	3	–	–	–
Cc1ccc(-c2nc(COc3ccc([C@H]4CO[C@@](C)(C(=O)O)OC4)cc3)c(C)o2)cc1	2.7	–	–	–
Cc1ccc(-c2nc(CCOc3ccc(C[C@H]4CO[C@@](C)(C(=O)O)OC4)cc3)c(C)o2)cc1	6.3	0.089 nM	1380 nM	–
Cc1oc(-c2ccccc2)nc1COc1ccc([C@H]2CO[C@@](C)(C(=O)O)OC2)cc1	3	–	–	–
Cc1oc(-c2ccccc2)nc1COc1ccc(C[C@H]2CO[C@@](C)(C(=O)O)OC2)cc1	6.5	1.09 nM	96 nM	–
CCO[C@@H](Cc1ccc(OCCc2ccc(OS(C)(=O)=O)cc2)cc1)C(=O)O [TESAGLITAZAR]	–	–	–	Activity [4]: 16%; Activity [5]: 51%; Activity [6]: 91%; Activity [7]: 54%; Activity [8]: 60%; Activity [9]: 67%
Cc1ccc(-c2nc(COc3ccc(C[C@H]4CO[C@@](C)(C(=O)O)OC4)cc3)c(C)o2)s1	5.6	0.6 nM	19.8 nM	–
Cc1cccc(Nc2cc(Cl)nc(SCC(=O)O)n2)c1C	4.4	–	–	–
Cc1ccc(-c2nc(COc3ccc(C[C@H]4CO[C@@](C)(C(=O)O)OC4)cc3)c(C)o2)cc1	8.2	0.072 nM	15 nM	Activity [4]: 30%; Activity [5]: 51%; Activity [6]: 77%; Activity [7]: 57%; Cmax [10]: 54 µg/mL; AUC(0-inf) [11]: 351 µg·h/mL; half-life [12]: 2.7 h; Tmax [13]: 1.7 h; Activity [8]: 50%; Activity [9]: 71%
Cc1oc(-c2ccccc2)nc1CCOc1ccc(C[C@H]2CO[C@@](C)(C(=O)O)OC2)cc1	5.3	0.272 nM	4100 nM	–
Cc1oc(C(C)(C)C)nc1COc1ccc(C[C@H]2CO[C@@](C)(C(=O)O)OC2)cc1	2.3	–	–	–
Cc1oc(C(C)(C)C)nc1CCOc1ccc(C[C@H]2CO[C@@](C)(C(=O)O)OC2)cc1	5.8	4.2 nM	5010 nM	–
Cc1ccc(-c2nc(CCOc3ccc(C[C@H]4CO[C@@](C)(C(=O)O)OC4)cc3)c(C)o2)s1	6.8	0.03 nM	239 nM	–
CN(CCOc1ccc(CC2SC(=O)NC2=O)cc1)c1ccccn1 (stereo not given) [ROSIGLITAZONE]	–	–	–	Activity [14]: 54%
